Where two headings read alike, the source gives them in different places.
Legend:
[1] = system: MCF-7 (ER+/PR+/HER2−) breast cancer cells; experiment: cells; format: cell-based; settings: for IC50: Homo sapiens, read-out: Growth inhibition [log(IC50 [μM]) ± SEM] (converted); for Early inhibition of growth compared to vehicle-treated cells: MCF-7, 24 h, tested 0.32–320 μM, Fig. 4A
in vitro [2] = settings: human, Cytotoxicity [log(EC50 [μM]) ± SEM], cellular necrosis, MCF-10A, 72 h exposure, 0.32–320 μM; values are logarithms
[3] = system: SK-BR-3 (ER−/PR−/HER2+) breast cancer cells; experiment: cells; format: cell-based; settings: Homo sapiens, read-out: Growth inhibition [log(IC50 [μM]) ± SEM] (converted)
[4] = system: MDA-MB-231 (triple negative) breast cancer cells; experiment: cells; format: cell-based; settings: Homo sapiens, read-out: Growth inhibition [log(IC50 [μM]) ± SEM] (converted)
[5] = system: benign MCF-10A breast cells; experiment: cells; format: cell-based; settings: for Change of cell growth compared to vehicle-treated cells: tested 0.32–320 μM; for IC50: Homo sapiens, read-out: Growth inhibition [log(IC50 [μM]) ± SEM] (converted)
[6] = system: benign MCF-10A breast cells; settings: tested 0.32–320 μM; for Concentrations that exerted significant toxicity compared to vehicle: 72 h, p ≤ 0.05, Fig. 5D′; for Concentrations that exerted significant cytotoxicity compared to vehicle: 24 h, p ≤ 0.05, Fig. 5D
in vitro [7] = settings: human, Cytotoxicity [log(EC50 [μM]) ± SEM], cellular necrosis, MDA-MB-231, 72 h exposure, 0.32–320 μM; values are logarithms
in vitro [8] = settings: human, Cytotoxicity [log(EC50 [μM]) ± SEM], cellular necrosis, SK-BR-3, 72 h exposure, 0.32–320 μM; values are logarithms
in vitro [9] = settings: human, Cytotoxicity [log(EC50 [μM]) ± SEM], cellular necrosis, MCF-7, 72 h exposure, 0.32–320 μM; values are logarithms

Structure (SMILES)	IC50 ([1]; MCF7, 24 h) [µM]	IC50 ([1]; MCF7, 72 h) [µM]	EC50 (in vitro [2]) [µM]	IC50 ([3]; SK-BR-3, 24 h) [µM]	IC50 ([3]; SK-BR-3, 72 h) [µM]	IC50 ([4]; MDA-MB-231, 24 h) [µM]	IC50 ([4]; MDA-MB-231, 72 h) [µM]	Change of cell growth compared to vehicle-treated cells ([5]; 24 h, Fig. 4D)	Change of cell growth compared to vehicle-treated cells ([5]; 72 h, Fig. 4D′)	IC50 ([5]; 24 h) [µM]	IC50 ([5]; 72 h) [µM]	Concentrations that exerted significant toxicity compared to vehicle [6] [µM]	EC50 (in vitro [7]) [µM]	EC50 (in vitro [8]) [µM]	EC50 (in vitro [9]) [µM]	Early inhibition of growth compared to vehicle-treated cells [1]	Concentrations that exerted significant cytotoxicity compared to vehicle [6] [µM]
C=C(C[C@H](N)C(=O)O)C(N)=O [Compound 1, (S)-2-Amino-4-carbamoylpent-4-enoic acid]	> 320	> 320	> 316	7.94	11.2	141	> 320	significant increases	significant increases	> 316	> 316	3.2	> 316	2.04	2.95	–	–
C=C(C[C@H](N)C(=O)O)C(=O)Nc1ccc(F)cc1 [Compound 9, (S)-2-Amino-4-((4-fluorophenyl)carbamoyl) pent-4-enoic acid]	> 320	75.9	> 316	11.5	4.79	> 320	> 320	–	–	> 316	> 316	–	> 316	0.0603	2.29	–	–
C=C(C[C@H](N)C(=O)O)C(=O)N1CCCCC1 [Compound 8, (S)-2-Amino-4-(piperidine-1-carbonyl)pent-4-enoic acid]	> 320	> 320	> 316	135	0.617	> 320	> 320	–	significant increases	> 316	> 316	–	> 316	> 316	200	–	–
C=C(C[C@H](N)C(=O)O)C(=O)Nc1ccccc1 [Compound 3, (S)-2-Amino-4-(phenylcarbamoyl)pent-4-enoic acid]	> 320	251	> 316	37.2	1.66	> 320	> 320	–	significant increases	> 316	> 316	–	> 316	> 316	2.04	–	–
C=C(C[C@H](N)C(=O)O)C(=O)Nc1ccc(Cl)cc1 [Compound 10, (S)-2-Amino-4-((4-chlorophenyl)carbamoyl)pent-4-enoic acid]	> 320	209	> 316	79.4	3.98	> 320	> 320	–	significant increases	> 316	> 316	100	> 316	> 316	93.3	exerted early inhibition	–
O=C(c1cc(Cc2n[nH]c(=O)c3ccccc23)ccc1F)N1CCN(C(=O)C2CC2)CC1 [Olaparib, reference compound]	> 316	107	> 316	1.62	1.05	162	155	–	–	> 316	> 316	320	97.7	0.0603	26.3	–	320
C=C(C[C@H](N)C(=O)O)C(=O)NC1CC1 [Compound 7, (S)-2-Amino-4-(cyclopropylcarbamoyl)pent-4-enoic acid]	229	> 320	> 316	316	0.575	> 320	> 320	–	significant increases	> 316	> 316	–	> 316	> 316	> 316	exerted early inhibition	–
CC/C(=C(\c1ccccc1)c1ccc(OCCN(C)C)cc1)c1ccccc1 [Tamoxifen, reference compound]	–	–	> 316	–	–	–	–	–	–	–	–	–	30.9	0.331	–	–	–
C=C(C[C@H](N)C(=O)O)C(=O)NCc1ccccc1 [Compound 4, (S)-2-Amino-4-(benzylcarbamoyl)pent-4-enoic acid]	> 320	195	> 316	74.1	0.562	> 320	> 320	–	–	> 316	> 316	–	> 316	> 316	219	–	–
C=C(C[C@H](N)C(=O)O)C(=O)NCc1ccc([N+](=O)[O-])cc1 [Compound 6, (S)-2-Amino-4-((4-nitrobenzyl)carbamoyl)pent-4-enoic acid]	> 320	> 320	> 316	12.9	3.16	219	> 320	significant increases	–	> 316	> 316	–	269	0.437	20.4	–	–
C=C(C[C@H](N)C(=O)O)C(=O)NCc1ccc(F)cc1 [Compound 5, (S)-2-Amino-4-((4-fluorobenzyl)carbamoyl)pent-4-enoic acid]	> 320	85.1	> 316	3.89	4.47	> 320	> 320	significant increases	significant increases	> 316	> 316	320	263	0.389	55	–	320
